In the supplement of paper PMC10307832:

Columns and labels:
Assay in all cases: relative viability (nuclei count vs DMSO), 5 days (fraction); higher = more cells survive
Pazopanib + Pemetrexed = compound: Cc1ccc(Nc2nccc(N(C)c3ccc4c(C)n(C)nc4c3)n2)cc1S(N)(=O)=O [Pazopanib] + Nc1nc2[nH]cc(CCc3ccc(C(=O)N[C@@H](CCC(=O)O)C(=O)O)cc3)c2c(=O)[nH]1 [Pemetrexed] (partner 0.2 µM)
How it was run: (§1)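 Nuclei were stained with Hoechst during a one-step fixation (final 0.05% Triton X-100, 1% formaldehyde, 1 ug/ml Hoechst) carried out 5 days after dosing, then counted on 4× images. The cells, lung cancer lines in 1536-well plates, had been dosed by pin tool the day after seeding with one drug alone or a fixed anchor-drug dose plus five library-drug doses (not always all listed) in √10 steps. Relative viability is the nuclei count in treated wells divided by that in vehicle wells, and each value is the median of duplicate plates.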

Pazopanib + Foretinib = compound: Cc1ccc(Nc2nccc(N(C)c3ccc4c(C)n(C)nc4c3)n2)cc1S(N)(=O)=O [Pazopanib] + COc1cc2c(Oc3ccc(NC(=O)C4(C(=O)Nc5ccc(F)cc5)CC4)cc3F)ccnc2cc1OCCCN1CCOCC1 [Foretinib] (partner 0.25 µM)
How it was run: as §1

Pazopanib + Tozasertib = compound: Cc1ccc(Nc2nccc(N(C)c3ccc4c(C)n(C)nc4c3)n2)cc1S(N)(=O)=O [Pazopanib] + Cc1cc(Nc2cc(N3CCN(C)CC3)nc(Sc3ccc(NC(=O)C4CC4)cc3)n2)n[nH]1 [Tozasertib] (partner 0.1 µM)
How it was run: as §1

Ponatinib + Pemetrexed = compound: Cc1ccc(C(=O)Nc2ccc(CN3CCN(C)CC3)c(C(F)(F)F)c2)cc1C#Cc1cnc2cccnn12 [Ponatinib] + Nc1nc2[nH]cc(CCc3ccc(C(=O)N[C@@H](CCC(=O)O)C(=O)O)cc3)c2c(=O)[nH]1 [Pemetrexed] (partner 0.2 µM)
How it was run: as §1

Row | Cell Line | relative viability (Pazopanib + Pemetrexed; first compound 0.01 µM) | relative viability (Pazopanib + Pemetrexed; first compound 0.03162 µM) | relative viability (Pazopanib + Pemetrexed; first compound 0.1 µM) | relative viability (Pazopanib + Pemetrexed; first compound 0.3162 µM) | relative viability (Pazopanib + Pemetrexed; first compound 1 µM) | relative viability (Pazopanib + Foretinib; first compound 0.01 µM) | relative viability (Pazopanib + Foretinib; first compound 0.03162 µM) | relative viability (Pazopanib + Foretinib; first compound 0.1 µM) | relative viability (Pazopanib + Foretinib; first compound 0.3162 µM) | relative viability (Pazopanib + Foretinib; first compound 1 µM) | relative viability (Pazopanib + Tozasertib; first compound 0.01 µM) | relative viability (Pazopanib + Tozasertib; first compound 0.03162 µM) | relative viability (Pazopanib + Tozasertib; first compound 0.1 µM) | relative viability (Pazopanib + Tozasertib; first compound 0.3162 µM) | relative viability (Pazopanib + Tozasertib; first compound 1 µM) | relative viability (Ponatinib + Pemetrexed; first compound 0.002 µM) | relative viability (Ponatinib + Pemetrexed; first compound 0.006325 µM) | relative viability (Ponatinib + Pemetrexed; first compound 0.06325 µM) | relative viability (Ponatinib + Pemetrexed; first compound 0.2 µM)
1 | NCI-H2342 | 0.599 | 0.756 | 0.842 | 0.75 | 0.655 | 0.981 | 1 | 1.09 | 0.939 | 0.755 | 0.481 | 0.554 | 0.544 | 0.496 | 0.388 | 0.71 | 0.733 | 0.726 | 0.646
2 | HCC-15 | 0.215 | 0.226 | 0.223 | 0.209 | 0.231 | 0.999 | 1.01 | 1.16 | 1.01 | 1.08 | 0.435 | 0.502 | 0.411 | 0.394 | 0.37 | 0.223 | 0.217 | 0.226 | 0.224
3 | A-427 | 0.942 | 1.04 | 0.934 | 1.05 | 1.05 | 0.971 | 1.21 | 1.15 | 1.02 | 1.05 | 0.183 | 0.207 | 0.207 | 0.217 | 0.186 | 0.928 | 0.986 | 0.981 | 0.908
4 | NCI-H2228 | 0.366 | 0.337 | 0.296 | 0.348 | 0.333 | 0.938 | 1.01 | 0.764 | 0.792 | 0.993 | 0.265 | 0.271 | 0.265 | 0.26 | 0.302 | 0.382 | 0.339 | 0.358 | 0.306
5 | NCI-H1734 | 0.435 | 0.396 | 0.468 | 0.436 | 0.432 | 0.829 | 0.948 | 0.873 | 0.893 | 0.926 | 0.262 | 0.242 | 0.28 | 0.261 | 0.234 | 0.394 | 0.399 | 0.44 | 0.395
6 | NCI-H2347 | 0.444 | 0.421 | 0.429 | 0.426 | 0.386 |  |  | 0.934 | 1.21 | 0.843 | 0.45 | 0.586 | 0.607 | 0.593 | 0.588 | 0.41 | 0.444 | 0.474 | 0.485
7 | PC-3 [JPC-3] |  | 0.993 | 0.957 | 1.06 | 1.15 | 1.05 | 1.01 | 1.12 | 1.06 | 0.995 | 0.947 | 0.918 | 0.916 | 0.915 | 0.756 |  | 1.09 | 1.12 | 1.1
8 | NCI-H1915 | 0.509 | 0.442 | 0.472 | 0.467 | 0.474 | 1.04 | 1.09 | 1.1 | 1.06 | 0.983 | 0.455 | 0.422 | 0.468 | 0.407 | 0.399 | 0.459 | 0.423 | 0.529 | 0.423
9 | NCI-H1666 | 0.932 | 0.834 | 0.92 | 0.72 | 0.847 | 0.998 | 1.01 | 0.995 | 1.02 | 1.1 | 0.573 | 0.649 | 0.625 | 0.609 | 0.648 | 0.847 | 0.829 | 0.928 | 0.837
10 | HCC-366 | 0.298 | 0.141 | 0.16 | 0.159 | 0.131 | 1.01 | 0.956 | 0.974 | 0.969 | 0.938 | 0.124 | 0.132 | 0.0845 | 0.163 | 0.068 | 0.128 | 0.154 | 0.191 | 0.201
11 | NCI-H1395 | 0.744 | 0.83 | 0.886 | 0.938 | 0.932 | 0.947 | 1.07 | 1.01 | 0.931 | 0.968 | 0.793 | 0.715 | 0.764 | 0.915 | 0.747 | 0.755 | 0.819 | 0.871 | 0.624
12 | NCI-H727 |  |  |  |  |  | 0.698 | 0.981 | 1.04 | 1.23 | 0.913 | 0.599 | 0.543 | 0.622 | 0.631 | 0.704 |  |  |  | 
13 | RERF-LC-KJ | 0.498 | 0.517 | 0.443 | 0.432 | 0.541 | 0.844 | 0.859 | 0.857 | 0.86 | 0.792 | 0.557 | 0.522 | 0.507 | 0.432 | 0.331 | 0.468 | 0.492 | 0.486 | 0.453
14 | NCI-H1623 |  |  |  |  |  | 0.835 | 0.846 | 0.834 | 0.896 | 0.911 | 0.43 | 0.455 | 0.413 | 0.46 | 0.393 |  |  |  | 
15 | Calu-6 |  |  |  |  |  | 0.89 | 0.954 | 0.93 | 0.848 | 0.803 |  |  |  |  |  |  |  |  | 
16 | LC-2-ad | 0.292 | 0.281 | 0.274 | 0.311 | 0.275 | 0.888 | 0.927 | 1.05 | 0.967 | 1.04 | 0.469 | 0.444 | 0.516 | 0.467 | 0.471 | 0.274 | 0.272 | 0.296 | 0.263
17 | CAL-12T | 1.13 | 1.3 | 1.37 | 1.08 | 1.26 | 1.03 | 1.06 | 1.17 | 1.05 | 0.97 | 0.247 | 0.327 | 0.312 | 0.297 | 0.294 | 1.13 | 1.14 | 1.31 | 1.21
18 | SK-LU-1 | 0.926 | 1.01 | 1.05 | 0.994 | 0.911 | 0.872 | 0.988 | 0.884 | 0.851 | 0.809 | 0.332 | 0.361 | 0.334 | 0.28 | 0.318 | 0.978 | 1.07 | 0.958 | 0.84
